Source: patent US12370232B2, “Use of polyphenol containing sugar cane extracts for preventing, improving or treating a skin condition” (priority 2017, dated 2025)

Assays:
[1] = tested on: tyrosinase; assay: Tyrosinase inhibition assay; assay type: biochemical
Method: A tyrosinase inhibition assay was performed to determine the tyrosinase inhibition potential of an extract derived from sugar cane of the present disclosure. […]
To measure tyrosinase inhibition potential of an extract derived from sugar cane of the present disclosure, tyrosinase was added to a mixture of a test sample solution containing an extract derived from sugar cane, L-DOPA, and phosphate buffer (pH 6.8), which was then incubated at 37° C. for 5 hours. Tyrosinase activity was determined through the amount of dopachrome production in the mixture, which was measured by optical density at 450 nm. Dopachrome is a cyclization product of L-DOPA, an intermediate in the biosynthesis of melanin.

[2] = tested on: MMP-1; assay: MMP-1 inhibition assay in UV irradiated human skin cells (zymography); assay type: cell-based
Method: The UV protection function of an extract derived from sugar cane of the present disclosure on skin using human skin cells was investigated. MMP-1, one of the key matrix metalloproteinases (MMPs) that is viewed as an indicator for tissue integrity breakdown and wrinkle formation, was used as a biomarker for skin damage. MMP-1 inhibitors have been related to skin aging prevention and therapy. An MMP-1 inhibition assay was performed to determine the MMP-1 inhibition potential of an extract derived from sugar cane of the present disclosure. […] In order to determine the UV protection ability of a test sample of an extract derived from sugar cane of the present disclosure, human skin cells were treated with (and without) the test sample followed by UV irradiation. The treated cells were then disrupted by subjection to several freeze-thaw cycles, and the proteins were obtained by centrifugation. Using the collected lysate, zymography was used to determine the enzymatic activity of secreted MMP-1. In the zymography, the proteins were separated by electrophoresis under denaturing (sodium dodecyl sulfate, SDS), nonreducing conditions. The separation occurred in a polyacrylamide gel containing a collagen substrate that was co-polymerized with the acrylamide. […] After electrophoresis, the gel was washed and subsequently incubated in an appropriate activation buffer. During this incubation, the concentrated, renatured MMPs in the gel digested the collagen substrate. After incubation, the gel was stained with Coomassie® Blue, and the MMPs were detected as clear bands against a blue background of undegraded substrate. The clear bands in the gel was quantified by densitometry. Avobenzone, a known MMP-1 inhibitor, was used as an assay control.

Compound: O=c1cc(CO)occ1O [Kojic Acid, Kojic acid]
- Concentration inducing the maximum inhibition [1]: 1000 µM
- Inhibition (%) Result ([1]; Conc. 3.91 uM): −11.66%
- Inhibition (%) Result ([1]; Conc. 7.81 uM): −9.33%
- Inhibition (%) Result ([1]; Conc. 15.63 uM): −4.66%
- Inhibition (%) Result ([1]; Conc. 31.25 uM): 1.23%
- Inhibition (%) Result ([1]; Conc. 62.50 uM): 12.35%
- Inhibition (%) Result ([1]; Conc. 125.00 uM): 30.45%
- Inhibition (%) Result ([1]; Conc. 250.00 uM): 52.40%
- Inhibition (%) Result ([1]; Conc. 500.00 uM): 75.45%
- Inhibition (%) Result ([1]; Conc. 1000.00 uM): 90.12%
- Maximum inhibition achieved ([1]; at 1000 μM): 90.12%

Compound: COc1ccc(C(=O)CC(=O)c2ccc(C(C)(C)C)cc2)cc1 [avobenzone, Avobenzone]
- Concentration inducing the maximum inhibition [2]: 10%
- MMP-1 inhibition (%) Average ([2]; Conc 0.31 %): 5.0%
- MMP-1 inhibition (%) Replicate 2 ([2]; Conc 0.31 %): 5.0%
- MMP-1 inhibition (%) Average ([2]; Conc 0.63 %): 44.1%
- MMP-1 inhibition (%) Replicate 1 ([2]; Conc 0.63 %): 22.51%
- MMP-1 inhibition (%) Replicate 2 ([2]; Conc 0.63 %): 65.72%
- MMP-1 inhibition (%) Average ([2]; Conc 1.25 %): 48.5%
- MMP-1 inhibition (%) Replicate 1 ([2]; Conc 1.25 %): 56.96%
- MMP-1 inhibition (%) Replicate 2 ([2]; Conc 1.25 %): 39.99%
- MMP-1 inhibition (%) Average ([2]; Conc 2.50 %): 79.8%
- MMP-1 inhibition (%) Replicate 1 ([2]; Conc 2.50 %): 77.44%
- MMP-1 inhibition (%) Replicate 2 ([2]; Conc 2.50 %): 82.22%
- MMP-1 inhibition (%) Average ([2]; Conc 5.00 %): 90.7%
- MMP-1 inhibition (%) Replicate 1 ([2]; Conc 5.00 %): 85.34%
- MMP-1 inhibition (%) Replicate 2 ([2]; Conc 5.00 %): 96.03%
- MMP-1 inhibition (%) Average ([2]; Conc 10.00 %): 97.5%
- MMP-1 inhibition (%) Replicate 1 ([2]; Conc 10.00 %): 95.44%
- MMP-1 inhibition (%) Replicate 2 ([2]; Conc 10.00 %): 99.52%
- Maximum inhibition achieved ([2]; at 10%): 97.50%
- EC50 ([2]; effective concentration at 50% of maximal inhibition): 1.22%
